Data on one compound can be found in PMC7998669, “7-(2-Anilinopyrimidin-4-yl)-1-benzazepin-2-ones Designed by a “Cut and Glue” Strategy Are Dual Aurora A/VEGF-R Kinase Inhibitors” (Molecules, 2021).

Usually IC50 stands for the concentration at which inhibition is half-maximal. Read a high IC50 as weaker potency in that assay.

Molecules are shown by their SMILES. A value given as a limit tells only on which side of the number the result lay.

What all share (experiment): radiometric 33PanQinase protein kinase assay
Holding throughout (assay type): biochemical
Holding throughout (settings): 1 µM ATP

Test [1] concerns the target T1, EPHB4 (Homo sapiens, UniProt P54760).
T1 construct: host or cells: Sf9 (baculovirus)

Test [2] addresses T2, ARK5 (Homo sapiens, UniProt O60285).
T2 construct: host or cells: Sf9 (baculovirus)

Test [3] deals with T3, INS-R (Homo sapiens, UniProt P06213).
T3 construct: host or cells: Sf9 (baculovirus)
T3 sequence (P06213 980-1382 limits assumed): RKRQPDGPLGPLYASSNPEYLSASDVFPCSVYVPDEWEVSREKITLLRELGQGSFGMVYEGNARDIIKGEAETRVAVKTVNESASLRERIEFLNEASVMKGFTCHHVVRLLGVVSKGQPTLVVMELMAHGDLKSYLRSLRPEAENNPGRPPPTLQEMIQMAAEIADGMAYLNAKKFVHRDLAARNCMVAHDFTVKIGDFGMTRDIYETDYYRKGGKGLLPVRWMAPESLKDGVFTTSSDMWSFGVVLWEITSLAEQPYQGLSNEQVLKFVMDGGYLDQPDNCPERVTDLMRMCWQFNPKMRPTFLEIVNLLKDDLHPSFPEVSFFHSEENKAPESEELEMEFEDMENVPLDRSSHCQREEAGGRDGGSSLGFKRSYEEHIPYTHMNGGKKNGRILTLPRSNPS

In test [4] the target is T4, MET (Homo sapiens, UniProt P08581).
T4 construct: host or cells: Sf9 (baculovirus)
T4 sequence (P08581 25-1390): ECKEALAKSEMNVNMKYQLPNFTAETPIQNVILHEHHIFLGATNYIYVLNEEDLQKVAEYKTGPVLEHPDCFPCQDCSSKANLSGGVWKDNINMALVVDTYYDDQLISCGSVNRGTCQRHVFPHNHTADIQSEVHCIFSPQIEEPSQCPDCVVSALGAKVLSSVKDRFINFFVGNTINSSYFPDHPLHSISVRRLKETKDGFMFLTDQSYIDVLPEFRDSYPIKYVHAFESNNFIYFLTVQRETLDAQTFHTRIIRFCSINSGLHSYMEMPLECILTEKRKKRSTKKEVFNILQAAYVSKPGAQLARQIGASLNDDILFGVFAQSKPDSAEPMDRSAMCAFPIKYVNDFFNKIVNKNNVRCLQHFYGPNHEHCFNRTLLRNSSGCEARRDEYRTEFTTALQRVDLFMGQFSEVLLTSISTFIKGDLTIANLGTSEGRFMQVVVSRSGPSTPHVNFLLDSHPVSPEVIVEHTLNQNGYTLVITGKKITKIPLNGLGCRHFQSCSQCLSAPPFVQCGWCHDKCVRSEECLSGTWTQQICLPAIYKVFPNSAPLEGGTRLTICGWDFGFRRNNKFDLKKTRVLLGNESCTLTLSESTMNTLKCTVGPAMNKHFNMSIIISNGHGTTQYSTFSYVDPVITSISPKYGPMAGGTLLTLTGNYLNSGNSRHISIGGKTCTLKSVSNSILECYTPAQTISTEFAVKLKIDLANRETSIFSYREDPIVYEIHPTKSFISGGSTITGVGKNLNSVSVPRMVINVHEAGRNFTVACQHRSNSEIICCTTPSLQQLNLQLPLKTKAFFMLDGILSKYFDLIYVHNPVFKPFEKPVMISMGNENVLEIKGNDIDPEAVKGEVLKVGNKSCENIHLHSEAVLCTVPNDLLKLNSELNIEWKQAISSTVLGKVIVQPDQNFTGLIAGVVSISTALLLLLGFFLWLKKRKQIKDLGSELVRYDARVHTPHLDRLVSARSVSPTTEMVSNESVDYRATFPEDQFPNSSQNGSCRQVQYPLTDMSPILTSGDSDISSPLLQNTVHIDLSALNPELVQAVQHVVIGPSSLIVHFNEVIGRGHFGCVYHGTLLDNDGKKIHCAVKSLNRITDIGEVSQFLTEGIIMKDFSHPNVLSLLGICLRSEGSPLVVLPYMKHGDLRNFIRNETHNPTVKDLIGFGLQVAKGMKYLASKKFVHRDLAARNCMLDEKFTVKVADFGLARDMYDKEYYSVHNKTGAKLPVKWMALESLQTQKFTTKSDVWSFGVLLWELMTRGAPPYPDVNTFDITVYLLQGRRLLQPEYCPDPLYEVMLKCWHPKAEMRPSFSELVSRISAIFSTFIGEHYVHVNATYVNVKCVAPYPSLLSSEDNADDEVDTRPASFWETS

Test [5] deals with T5, FAK (Homo sapiens, UniProt Q05397).
T5 construct: host or cells: Sf9 (baculovirus)
T5 sequence (Q05397 whole entry): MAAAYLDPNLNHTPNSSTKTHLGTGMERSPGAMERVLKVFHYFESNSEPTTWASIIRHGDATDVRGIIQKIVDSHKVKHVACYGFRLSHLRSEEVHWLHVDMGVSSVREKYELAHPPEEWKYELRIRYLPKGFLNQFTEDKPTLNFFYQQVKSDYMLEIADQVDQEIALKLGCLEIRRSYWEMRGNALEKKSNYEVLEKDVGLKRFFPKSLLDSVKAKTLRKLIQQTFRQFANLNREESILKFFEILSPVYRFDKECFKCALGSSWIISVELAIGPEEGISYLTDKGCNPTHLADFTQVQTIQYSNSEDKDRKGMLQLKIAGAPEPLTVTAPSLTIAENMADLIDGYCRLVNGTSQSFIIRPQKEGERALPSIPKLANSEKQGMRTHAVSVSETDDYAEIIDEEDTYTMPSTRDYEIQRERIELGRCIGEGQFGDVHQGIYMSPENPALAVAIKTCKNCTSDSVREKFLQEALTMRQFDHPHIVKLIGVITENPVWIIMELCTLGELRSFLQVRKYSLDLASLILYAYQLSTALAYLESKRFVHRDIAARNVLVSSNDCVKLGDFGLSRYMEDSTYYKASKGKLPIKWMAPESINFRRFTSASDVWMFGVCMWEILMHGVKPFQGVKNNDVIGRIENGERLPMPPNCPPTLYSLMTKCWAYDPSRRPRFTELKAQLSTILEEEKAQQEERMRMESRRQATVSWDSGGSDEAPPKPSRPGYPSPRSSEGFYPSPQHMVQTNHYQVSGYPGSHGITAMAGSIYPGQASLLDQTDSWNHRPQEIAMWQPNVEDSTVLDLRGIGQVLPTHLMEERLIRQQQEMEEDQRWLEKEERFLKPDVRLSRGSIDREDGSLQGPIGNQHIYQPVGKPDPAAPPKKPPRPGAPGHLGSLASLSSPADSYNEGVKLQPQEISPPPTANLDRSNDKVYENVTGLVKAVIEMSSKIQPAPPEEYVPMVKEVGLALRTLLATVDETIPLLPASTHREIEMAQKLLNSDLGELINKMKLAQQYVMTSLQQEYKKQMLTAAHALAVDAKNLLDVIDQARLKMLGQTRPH

Test [6] addresses T6, CDK4/CycD1 (Homo sapiens, UniProt P11802).
T6 construct: host or cells: Sf9 (baculovirus)

T2 sequence (O60285 whole entry): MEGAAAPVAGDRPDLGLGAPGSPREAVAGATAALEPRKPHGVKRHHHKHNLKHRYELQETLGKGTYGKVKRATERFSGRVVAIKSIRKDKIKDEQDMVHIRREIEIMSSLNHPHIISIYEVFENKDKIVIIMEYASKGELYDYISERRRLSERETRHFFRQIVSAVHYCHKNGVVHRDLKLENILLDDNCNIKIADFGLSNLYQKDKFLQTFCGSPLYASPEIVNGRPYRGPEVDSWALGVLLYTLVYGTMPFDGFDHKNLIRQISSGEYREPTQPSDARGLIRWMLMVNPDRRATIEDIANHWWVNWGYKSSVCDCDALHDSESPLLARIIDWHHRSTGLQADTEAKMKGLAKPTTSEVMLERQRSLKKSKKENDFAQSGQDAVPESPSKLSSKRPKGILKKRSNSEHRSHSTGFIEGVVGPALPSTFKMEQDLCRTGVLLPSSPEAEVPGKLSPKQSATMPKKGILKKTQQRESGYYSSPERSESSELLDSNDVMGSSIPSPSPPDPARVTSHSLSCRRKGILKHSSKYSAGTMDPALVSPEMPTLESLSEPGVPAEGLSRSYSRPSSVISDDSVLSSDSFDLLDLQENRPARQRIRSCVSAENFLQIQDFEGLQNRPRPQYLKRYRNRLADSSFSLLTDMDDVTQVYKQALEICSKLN
T6 sequence (P11802 whole entry): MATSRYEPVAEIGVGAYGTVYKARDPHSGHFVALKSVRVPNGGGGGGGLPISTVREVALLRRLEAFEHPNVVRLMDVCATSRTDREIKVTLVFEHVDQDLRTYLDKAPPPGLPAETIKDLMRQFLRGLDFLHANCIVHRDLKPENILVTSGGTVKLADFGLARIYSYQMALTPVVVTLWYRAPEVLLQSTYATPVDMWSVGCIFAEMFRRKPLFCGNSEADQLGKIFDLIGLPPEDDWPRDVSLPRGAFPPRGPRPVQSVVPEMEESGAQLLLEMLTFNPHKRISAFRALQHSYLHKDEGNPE
T6 sequence (P24385 whole entry partner): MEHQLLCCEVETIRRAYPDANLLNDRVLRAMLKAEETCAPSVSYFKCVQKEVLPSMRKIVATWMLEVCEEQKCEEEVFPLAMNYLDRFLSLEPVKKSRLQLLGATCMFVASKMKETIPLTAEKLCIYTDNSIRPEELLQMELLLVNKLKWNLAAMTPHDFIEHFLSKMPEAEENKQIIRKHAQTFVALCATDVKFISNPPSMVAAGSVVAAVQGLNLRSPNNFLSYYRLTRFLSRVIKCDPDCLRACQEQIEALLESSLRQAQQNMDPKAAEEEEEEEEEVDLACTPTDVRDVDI
T1 sequence (P54760 16-987): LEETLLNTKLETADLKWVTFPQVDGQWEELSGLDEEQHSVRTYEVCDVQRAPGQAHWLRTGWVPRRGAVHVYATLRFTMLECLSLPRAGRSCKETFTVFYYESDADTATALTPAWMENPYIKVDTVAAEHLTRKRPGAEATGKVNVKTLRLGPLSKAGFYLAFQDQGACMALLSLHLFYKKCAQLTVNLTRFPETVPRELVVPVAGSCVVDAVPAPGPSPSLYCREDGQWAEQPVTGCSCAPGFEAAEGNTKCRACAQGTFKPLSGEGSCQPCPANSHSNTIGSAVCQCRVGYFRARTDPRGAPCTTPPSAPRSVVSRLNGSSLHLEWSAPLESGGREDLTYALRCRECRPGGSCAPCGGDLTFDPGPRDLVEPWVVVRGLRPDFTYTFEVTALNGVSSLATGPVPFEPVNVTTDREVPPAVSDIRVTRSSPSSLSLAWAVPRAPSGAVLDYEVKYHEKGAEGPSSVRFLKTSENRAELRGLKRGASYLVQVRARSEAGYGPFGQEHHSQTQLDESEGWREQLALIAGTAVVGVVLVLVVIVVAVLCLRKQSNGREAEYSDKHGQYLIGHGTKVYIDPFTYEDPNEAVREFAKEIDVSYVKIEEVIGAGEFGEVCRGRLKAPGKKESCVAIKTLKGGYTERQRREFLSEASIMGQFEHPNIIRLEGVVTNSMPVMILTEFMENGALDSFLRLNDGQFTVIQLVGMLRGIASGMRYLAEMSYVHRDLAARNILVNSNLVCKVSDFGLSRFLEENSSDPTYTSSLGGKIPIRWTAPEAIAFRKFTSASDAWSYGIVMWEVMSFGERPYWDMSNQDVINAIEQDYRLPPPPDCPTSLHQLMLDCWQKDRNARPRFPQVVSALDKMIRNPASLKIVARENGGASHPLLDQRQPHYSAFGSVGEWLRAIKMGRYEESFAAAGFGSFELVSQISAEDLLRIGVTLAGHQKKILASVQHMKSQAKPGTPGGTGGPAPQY

With `O=C1CCCc2cc(-c3ccnc(Nc4ccccc4)n3)ccc2N1` [Compound 2a, 7-(2-Anilinopyrimidin-4-yl)-1,3,4,5-tetrahydro-2H-1-benzazepin-2-one], the IC50 is over 100 µM in test [1]; over 100 µM in test [2]; over 100 µM in test [3]; over 100 µM in test [4]; over 100 µM in test [5]; 19 µM in test [6].
